{"source": "patent US20230285498A1", "about": "“TREATMENTS FOR CANCERS HAVING KRAS MUTATIONS” (City of Hope, priority 2020, published 2023)", "key": {"SW1573 [1]": {"tested_on": "SW1573", "experiment": "Drug combination synergy assay (inhibition matrix)", "assay_type": "cell-based", "settings": "Homo sapiens", "procedure": "The synergy finder codes were used to determine the synergy between drugs for 48 possible combinations. The codes were run using the R-platform and synergy was calculated and represented as the synergy landscape.\nDrug Combination Synergy Assay: For combination index (CI) calculation, SW1573 and H23 incured cell lines were seeded in 96-well plate with 5000 cells per well. Three biological replicates (three 96-well plates for each drug combination) were used. […] The drugs were used in linear dilution series with dilution factor of 2. […] Further, R package called SynergyFinder (He et al., 2018) was used to find the nature of drug-drug interaction (i.e. if they work in synergy or antagonistically or non-interactively). For this purpose, the drug response matrix is supplied to the mentioned package, which then uses several models namely Highest Single Agent (Berenbaum, 1989), Loewe additivity (Loewe, 1953), Bliss independence (Bliss, 1939) and Zero Interaction Potency (Yadav et al., 2015) to quantify the degree of drug synergy. The dose response matrix was used to calculate individual CI values for IC30, IC50 and IC70 drug treatments. The output values were used to plot isobolograms using the following formula. CI=IC50 (A) pair IC50 (A)+IC50 (B) pair IC50 (B)"}, "SW1573 spheroids": {"tested_on": "SW1573 spheroids", "experiment": "3D spheroid assay", "assay_type": "cell-based", "settings": "SW1573", "procedure": "(§1) The activation of apoptosis is marked with the increase in green fluorescence intensity.\n(§2) To determine the sensitivities of the same cells in 3D, mKate expressing cells were used to generate spheroids. Spheroids were monitored in real time using the IncuCyte live cell imaging system (FIG. 1B).\n(§3) Cell proliferation and apoptosis assay: Cell proliferation assays were performed using cell lines stably transfected with NucLight Red Lentivirus (Essen BioScience) to accurately visualize and count the nucleus of a single cell. Cells were seeded on a 96-well plate and allowed to adhere for 24 h. Test compounds were added at indicated concentrations. Caspase-3/7 Green Apoptosis Reagent (Essen BioScience) was also added as a green fluorescent indicator of caspase3/7-mediated apoptotic activity. To monitor cell proliferation and apoptosis over time, the plate was placed in the IncuCyte S3 Live Cell Imaging System (Essen BioScience) and images were acquired every 2 hours. Data analysis was generated by the IncuCyte software using a red fluorescence mask to accurately count each cell nucleus and a green fluorescence mask to measure apoptosis over time. 3D spheroid assay 3D spheroid experiments were performed using cell lines stably transfected with NucLight Red Lentivirus (Essen BioScience) to visualize red fluorescence as an indicator of cell viability. Cells were seeded on a 96-well ultra-low attachment plate and allowed to form spheroids overnight. Drug treatment was added as indicated along with Cytotox Green Reagent (Essen BioScience), used as a green fluorescence indicator of cell death due to loss of cell membrane integrity. To monitor cell proliferation and apoptosis over time, the plate was placed in the IncuCyte S3 Live Cell Imaging System (Essen BioScience) and images were acquired every 2 hours. Data analysis was generated by the IncuCyte software using a red fluorescence mask to accurately measure intensity and area of red fluorescence, indicating spheroid viability and a green fluorescence mask, indicating cell death. Cell cycle analysis."}, "H358 spheroids": {"tested_on": "H358 spheroids", "experiment": "3D spheroid assay", "assay_type": "cell-based", "settings": "H358", "procedure": "as §1, §2, §3"}, "H23 spheroids": {"tested_on": "H23 spheroids", "experiment": "3D spheroid assay", "assay_type": "cell-based", "settings": "H23", "procedure": "as §1, §2, §3"}, "SW1573 [2]": {"tested_on": "SW1573", "experiment": "Cell proliferation assay, 2D (IncuCyte live cell imaging)", "assay_type": "cell-based", "settings": "SW1573", "procedure": "The cells were seeded at density of 10000 cells/well 12 hours prior to the experiment. Once the cells attached to the plate the media was removed and the drugs were added to the cells. […] Cell proliferation was observed using the IncuCyte Live Imaging System for 72 hrs.\nKnockdown of ITGB4 (Cat #SR302473C) at the mRNA level in the SW1573 cells was done using siRNAs purchased from OriGene Technologies (Rockville, Md., USA). JetPRIME transfection reagent (Polyplus Transfection, Illkirch, France) was used to transfect the siRNAs according to the manufacturer's protocol. Cells were seeded in 6-well plates (200,000 cells/well) and allowed to adhere overnight. Next day, 10 nM siRNA was transfected with 4 μl jetPRIME reagent in complete growth medium for each well. Next day cells were trypsinized, counted and re-plated on the 96 well plate for cell proliferation and drug assay. […] Cell growth medium was changed the next day and expression was detected 72 h post-transfection by immunoblotting.\n(§4) The cells grown in 2D cultures were treated with various concentrations of the drug, and the effect on cell proliferation was determined in real time using the live cell proliferation assay (IncuCyte, Essen Bioscience, Inc.) as described in the methods.\nas §3"}, "[3]": {"tested_on": "cisplatin-refractory KRAS mutant NSCLC cells", "experiment": "Sensitization of cisplatin-refractory cells", "assay_type": "cell-based", "settings": "read-out: IC50 to sensitize cisplatin-refractory KRAS mutant NSCLC cells", "procedure": "Furthermore, treating NSCLC cell lines that express high levels of ITGB4 and PXN (H358 and H2009) were treated with carfilzomib, H358 cells carrying the KRAS G12C mutation were more sensitive than H2009 cells harboring the G12A mutation. […] Taken together, these observations indicate that treating patients with carfilzomib in addition to targeting mutant KRAS will be more efficacious than carfilzomib treatment alone."}, "SW1573 NSCLC cells": {"tested_on": "SW1573 NSCLC cells", "experiment": "Mouse SW1573 xenograft", "assay_type": "in vivo, Athymic nude nu/nu mice", "procedure": "Mouse xenograft studies. Athymic nude nu/nu mice were obtained from Charles River, Wilmington, Mass., and were acclimated for a week before beginning the experiment. All animal experiments were carried out in accordance with a protocol approved by the Institutional Animal Care and Use Committee (IACUC #16004). […] All 40 animals were injected with 1×10^6 SW1573 cells suspensions in 100 μl of PBS, subcutaneously into one flank of each mouse. At the same time, animals were randomized into treatment groups. Treatment was started 12 days after the SW1573 NSCLC cells implantation to see palpable tumor growth. Treatments were given to mice via oral gavage twice a week for 8 weeks. Animals were examined daily for signs of tumor growth. Tumors were measured in two dimensions using calipers and body weights were recorded. Photographs of animals were taken at day 1, day 7, day 14, day 21, day 28, day 35, day 42, day 49, and day 56 after treatment. Photographs of tumors were also taken at day 56 after treatment. At the end of the study, the mice were euthanized by CO2 asphyxiation followed by cervical dislocation. The tumor weights were compared between groups using an unpaired Student's t-test. A portion of the tumor was fixed in 10% buffered formaldehyde solution and paraffin-embedded for immuno-staining or was snap-frozen in liquid nitrogen for further molecular analysis such as western blotting."}, "SW1573 cells": {"tested_on": "SW1573 cells", "experiment": "Zebrafish larvae SW1573 xenotransplant", "assay_type": "in vivo", "procedure": "The inventors microinjected SW1573 cells into the perivitelline space of 48 hour post-fertilization (hpf) zebrafish larvae."}, "H23 cells": {"tested_on": "H23 cells", "experiment": "Zebrafish larvae H23 xenotransplant", "assay_type": "in vivo", "settings": "sotorasib 12 μM, adagrasib 2 μM, carfilzomib 1.6 mM as printed; Day 3"}, "H23": {"tested_on": "H23", "experiment": "Cell proliferation assay, 2D (IncuCyte live cell imaging)", "assay_type": "cell-based", "settings": "H23", "procedure": "as §4, §3"}, "H358": {"tested_on": "H358", "experiment": "Cell proliferation assay, 2D (IncuCyte live cell imaging)", "assay_type": "cell-based", "settings": "H358", "procedure": "as §4, §3"}}, "note": "Like-named read-outs stand apart in the source and are kept apart here.", "data": [{"smiles": "C[C@@H]1C[C@H](C)CN(S(=O)(=O)c2ccc3c(c2)C(=NO)c2cc(S(=O)(=O)N4C[C@H](C)C[C@H](C)C4)ccc2C3=NO)C1", "note": "[tegatrabetan]", "values": [{"measurement": "inhibition at 0.01 µM", "setting": "SW1573 [1]; tegatrabetan 10 nM, read-out: inhibition of cell growth", "result": 10, "unit": "%"}]}, {"smiles": "C=C(F)C(=O)N1CCN(c2nc(OC[C@@H]3CCCN3C)nc3c2CCN(c2cccc4cccc(Cl)c24)C3)C[C@@H]1CC#N", "note": "[adagrasib]", "values": [{"measurement": "better viability compared to untreated spheroids", "setting": "SW1573 spheroids; 0.6 μM", "result": 50, "unit": "%"}, {"measurement": "spheroids inviable (red mean intensity, last time point)", "setting": "H358 spheroids; 0.6 μM", "result": 80, "unit": "%"}, {"measurement": "spheroids inviable (red mean intensity, last time point)", "setting": "H23 spheroids; 0.6 μM", "result": 40, "unit": "%"}]}, {"smiles": "CC(C)C[C@H](NC(=O)[C@H](CCc1ccccc1)NC(=O)CN1CCOCC1)C(=O)N[C@@H](Cc1ccccc1)C(=O)N[C@@H](CC(C)C)C(=O)[C@@]1(C)CO1", "note": "[carfilzomib]", "values": [{"measurement": "effect on cell growth", "setting": "SW1573 [2]; 20 nM", "result": "slows cell growth"}, {"measurement": "inhibition at 0.01 µM", "setting": "SW1573 [1]; carfilzomib 10 nM, 72 hours, read-out: inhibition of growth", "result": 60, "unit": "%"}, {"measurement": "IC50", "setting": "[3]", "result": 0.0008, "unit": "µM"}, {"measurement": "tumor weight compared to control group", "setting": "SW1573 NSCLC cells; end of study (day 56)", "result": "significant reduction in tumor weight"}, {"measurement": "reduction in tumor area", "setting": "SW1573 NSCLC cells; sotorasib 10 mg/kg, adagrasib 10 mg/kg, carfilzomib 2 mg/kg, oral gavage twice a week, day 56", "result": "~56", "unit": "%"}, {"measurement": "most effective dose, drug alone (obliterates SW1573 cells)", "setting": "SW1573 cells", "result": 1.6, "unit": "µM"}, {"measurement": "reduction of tumor growth (median)", "setting": "H23 cells", "result": "~82", "unit": "%"}]}, {"smiles": "C=CC(=O)N1CCN(c2ncnc3c(F)c(-c4c(O)cccc4F)c(Cl)cc23)CC1", "note": "[ARS1620, (S)-1-(4-(6-chloro-8-fluoro-7-(2-fluoro-6-hydroxyphenyl)quinazolin-4-yl)piperazin-1-yl)prop-2-en-1-one]", "values": [{"measurement": "inhibition at 10 µM", "setting": "SW1573 spheroids; Homo sapiens, 10 μM, read-out: inhibition of spheroid area / reduction in spheroid growth", "result": "~25", "unit": "%"}, {"measurement": "reduction of spheroid mean red intensity", "setting": "SW1573 spheroids; 5 μM", "result": 40, "unit": "%"}, {"measurement": "reduction of spheroid mean red intensity", "setting": "H358 spheroids; 5 μM", "result": 80, "unit": "%"}, {"measurement": "reduction in spheroid growth", "setting": "H358 spheroids; 10 μM", "result": 70, "unit": "%"}, {"measurement": "reduction of spheroid mean red intensity", "setting": "H23 spheroids; 5 μM", "result": 50, "unit": "%"}, {"measurement": "reduction in spheroid growth", "setting": "H23 spheroids; 10 μM", "result": 70, "unit": "%"}, {"measurement": "inhibition at 10 µM", "setting": "SW1573 [2]; Homo sapiens, 10 μM, 72 hours, read-out: inhibition of proliferation / cell growth", "result": 20, "unit": "%"}, {"measurement": "IC50", "setting": "SW1573 [2]; Homo sapiens, 72 hours, Example 6", "result": "> 10", "unit": "µM"}, {"measurement": "inhibition of cell growth", "setting": "H23; at 1.2 (unit not given)", "result": 30, "unit": "%"}, {"measurement": "inhibition at 5 µM", "setting": "H23; Homo sapiens, NCI-H23, 5 μM, read-out: inhibition of cell growth", "result": 50, "unit": "%"}, {"measurement": "inhibition at 10 µM", "setting": "H23; Homo sapiens, NCI-H23, 10 μM, 72 hours, read-out: inhibition of proliferation / cell growth", "result": 80, "unit": "%"}, {"measurement": "IC50", "setting": "H23; Homo sapiens, NCI-H23, 72 hours, Example 6", "result": 7.6, "unit": "µM"}, {"measurement": "inhibition of cell growth", "setting": "H358; 2.5, 5 or 10 μM", "result": 50, "unit": "%"}, {"measurement": "inhibition at 1.2 µM", "setting": "H358; Homo sapiens, NCI-H358, 1.2 μM, 72 hours, read-out: inhibition of cell growth", "result": 40, "unit": "%"}]}]}
